Experimental data taken from PubChem BioAssay AID2393 (NMMLSC, 2010).
The source made the active and inactive calls.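 Rule for the calls: active = none, because compounds meeting the potency rule were filed inconclusive for hitting several proteins; inconclusive = EC50 under 20 µM with over 15% binding change; inactive = the rest.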

The compounds below were run against Cell division control protein 42 homolog (Homo sapiens) (UniProt P60953) (assay: small GTPase panel, fluorescent GTP binding blockade – biochemical, Mg buffer, constant GTP, RhoA, Rac1, Cdc42, mechanism study for Ras-family GTPase inhibitor project, profiling panel (AID 2393;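 for EC50: EC50 marks half change in GTP binding and may reflect gain or loss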)). Details: GST-GTPase beads, BODIPY-GTP binding, flow cytometry, Cdc42ACT.

Row | SMILES | EC50
1 | Cc1cccc(C2CC(c3ccccc3)=NN2c2ccc(S(N)(=O)=O)cc2)c1 (stereo not given) | 8.35 µM
2 | COc1ccc(-c2cc(CCC(=O)N3CCN(c4cc(C)ccc4C)CC3)on2)cc1 | 2.78 µM
3 | Cc1ccccc1C1CC(c2ccccc2)=NN1c1ccc(S(N)(=O)=O)cc1 (stereo not given) | 14.7 µM
4 | COc1ccc(-c2noc(CCC(=O)N3CCN(c4cc(C)ccc4C)CC3)n2)cc1 | inactive
5 | COc1ccc(C2CC(C(C)(C)C)=NN2c2ccc(S(N)(=O)=O)cc2)cc1 (stereo not given) | 16.4 µM
6 | NS(=O)(=O)c1ccc(N2N=C(c3ccccc3)CC2c2ccccc2)cc1 (stereo not given) | 13.1 µM
7 | NS(=O)(=O)c1ccc(N2N=C(c3ccccc3)CC2c2cccc(Br)c2)cc1 (stereo not given) | 5.86 µM

Continued, values first:

Row | EC50 | SMILES
8 | 5.22 µM | COc1ccc(C2CC(c3ccsc3)=NN2c2ccc(S(N)(=O)=O)cc2)cc1 (stereo not given)
9 | inactive | COc1ccc(C2=NN(c3ccc(S(N)(=O)=O)cc3)C(c3ccc(OC)cc3)C2)cc1 (stereo not given)
10 | inactive | COc1ccc(C2CC(c3cccc(OC)c3)=NN2c2ccc(S(N)(=O)=O)cc2)cc1 (stereo not given)
11 | 1.85 µM | COc1ccc(C2CC(c3cccc(C)c3)=NN2c2ccc(S(N)(=O)=O)cc2)cc1 (stereo not given)
12 | 5.07 µM | Cc1ccc(C2CC(c3ccccc3)=NN2c2ccc(S(N)(=O)=O)cc2)cc1 (stereo not given)
13 | 4.28 µM | COc1ccc(C2CC(c3cccs3)=NN2c2ccc(S(N)(=O)=O)cc2)cc1 (stereo not given)
14 | 4.22 µM | NS(=O)(=O)c1ccc(N2N=C(c3ccccc3)CC2c2ccc(Cl)cc2)cc1 (stereo not given)
15 | 5.28 µM | COc1ccc(C2CC(c3ccccc3OC)=NN2c2ccc(S(N)(=O)=O)cc2)cc1 (stereo not given)
16 | 4.65 µM | COc1cccc(C2CC(c3ccccc3)=NN2c2ccc(S(N)(=O)=O)cc2)c1 (stereo not given)
17 | 2.73 µM | COc1ccc(C2CC(c3ccccc3)=NN2c2ccc(S(N)(=O)=O)cc2)cc1 (stereo not given)
18 | inactive | COc1ccc(C2CC(c3ccc(C)cc3)=NN2c2ccc(S(N)(=O)=O)cc2)cc1 (stereo not given)

Same assay, conditions: GST-GTPase beads, BODIPY-GTP binding, flow cytometry, Cdc42ACT, at 100 µM (top of the series)

Row | SMILES | GTP binding remaining (% of DMSO)
19 | COc1ccc(-c2noc(CCC(=O)N3CCC(c4cc(C)ccc4C)CC3)n2)cc1 | inactive
20 | COc1ccc(-c2cc(CCC(=O)N3CCN(c4cc(C)ccc4C)CC3)[nH]n2)cc1 | inactive
21 | NS(=O)(=O)c1ccc(N2N=C(c3ccccc3)CC2c2ccccc2Cl)cc1 (stereo not given) | inactive
22 | COc1ccc(-c2ccc(CCC(=O)N3CCN(c4cc(C)ccc4C)CC3)s2)cc1 | inactive
23 | COc1ccc(-c2ccc(CCC(=O)N3CCN(c4cc(C)ccc4C)CC3)[nH]2)cc1 | inactive
24 | COc1ccc(-c2ccc(CCC(=O)N3CCN(c4cc(C)ccc4C)CC3)o2)cc1 | inactive

Next, values leading:

Row | GTP binding remaining (% of DMSO) | SMILES
25 | inactive | COc1ccc(C2CC(c3ccccc3C)=NN2c2ccc(S(N)(=O)=O)cc2)cc1 (stereo not given)
26 | inactive | COc1ccc(C2CC(C)=NN2c2ccc(S(N)(=O)=O)cc2)cc1 (stereo not given)
27 | inactive | COc1ccc(C2CC(c3ccc(Br)cc3)=NN2c2ccc(S(N)(=O)=O)cc2)cc1 (stereo not given)
28 | inactive | COc1ccc(C2CC(c3cccc(C(F)(F)F)c3)=NN2c2ccc(S(N)(=O)=O)cc2)cc1 (stereo not given)
29 | inactive | COc1ccc(C2CC(c3ccc(C(F)(F)F)cc3)=NN2c2ccc(S(N)(=O)=O)cc2)cc1 (stereo not given)
30 | inactive | COc1ccc(C2CC(c3ccc(N(C)C)cc3)=NN2c2ccc(S(N)(=O)=O)cc2)cc1 (stereo not given)

Same assay, conditions: GST-GTPase beads, BODIPY-GTP binding, flow cytometry, Cdc42WT

Row | SMILES | EC50
31 | Cc1cccc(C2CC(c3ccccc3)=NN2c2ccc(S(N)(=O)=O)cc2)c1 (stereo not given) | 7.7 µM
32 | COc1ccc(-c2cc(CCC(=O)N3CCN(c4cc(C)ccc4C)CC3)on2)cc1 | 0.97 µM
33 | Cc1ccccc1C1CC(c2ccccc2)=NN1c1ccc(S(N)(=O)=O)cc1 (stereo not given) | 15.3 µM
34 | COc1ccc(-c2noc(CCC(=O)N3CCN(c4cc(C)ccc4C)CC3)n2)cc1 | inactive
35 | COc1ccc(C2CC(C(C)(C)C)=NN2c2ccc(S(N)(=O)=O)cc2)cc1 (stereo not given) | 14.4 µM
36 | NS(=O)(=O)c1ccc(N2N=C(c3ccccc3)CC2c2ccccc2Cl)cc1 (stereo not given) | inactive
37 | NS(=O)(=O)c1ccc(N2N=C(c3ccccc3)CC2c2ccccc2)cc1 (stereo not given) | 13.4 µM
38 | NS(=O)(=O)c1ccc(N2N=C(c3ccccc3)CC2c2cccc(Br)c2)cc1 (stereo not given) | 6.95 µM

Second part, the compound after the results:

Row | EC50 | SMILES
39 | 5.19 µM | COc1ccc(C2CC(c3ccsc3)=NN2c2ccc(S(N)(=O)=O)cc2)cc1 (stereo not given)
40 | 1.9 µM | COc1ccc(C2CC(c3cccc(OC)c3)=NN2c2ccc(S(N)(=O)=O)cc2)cc1 (stereo not given)
41 | 2.11 µM | COc1ccc(C2CC(c3cccc(C)c3)=NN2c2ccc(S(N)(=O)=O)cc2)cc1 (stereo not given)
42 | 4.36 µM | Cc1ccc(C2CC(c3ccccc3)=NN2c2ccc(S(N)(=O)=O)cc2)cc1 (stereo not given)
43 | 4.08 µM | COc1ccc(C2CC(c3cccs3)=NN2c2ccc(S(N)(=O)=O)cc2)cc1 (stereo not given)
44 | 3.94 µM | NS(=O)(=O)c1ccc(N2N=C(c3ccccc3)CC2c2ccc(Cl)cc2)cc1 (stereo not given)
45 | 5.66 µM | COc1ccc(C2CC(c3ccccc3OC)=NN2c2ccc(S(N)(=O)=O)cc2)cc1 (stereo not given)
46 | 4.69 µM | COc1cccc(C2CC(c3ccccc3)=NN2c2ccc(S(N)(=O)=O)cc2)c1 (stereo not given)
47 | 2.5 µM | COc1ccc(C2CC(c3ccccc3)=NN2c2ccc(S(N)(=O)=O)cc2)cc1 (stereo not given)
48 | inactive | COc1ccc(C2CC(c3ccc(C)cc3)=NN2c2ccc(S(N)(=O)=O)cc2)cc1 (stereo not given)

Same assay, conditions: GST-GTPase beads, BODIPY-GTP binding, flow cytometry, Cdc42WT, at 100 µM (top of the series)

Row | SMILES | GTP binding remaining (% of DMSO)
49 | COc1ccc(-c2noc(CCC(=O)N3CCC(c4cc(C)ccc4C)CC3)n2)cc1 | inactive
50 | COc1ccc(-c2cc(CCC(=O)N3CCN(c4cc(C)ccc4C)CC3)[nH]n2)cc1 | inactive
51 | COc1ccc(-c2ccc(CCC(=O)N3CCN(c4cc(C)ccc4C)CC3)s2)cc1 | inactive
52 | COc1ccc(-c2ccc(CCC(=O)N3CCN(c4cc(C)ccc4C)CC3)[nH]2)cc1 | inactive
53 | COc1ccc(-c2ccc(CCC(=O)N3CCN(c4cc(C)ccc4C)CC3)o2)cc1 | inactive

Second part, the compound after the results:

Row | GTP binding remaining (% of DMSO) | SMILES
54 | inactive | COc1ccc(C2CC(c3ccccc3C)=NN2c2ccc(S(N)(=O)=O)cc2)cc1 (stereo not given)
55 | inactive | COc1ccc(C2CC(C)=NN2c2ccc(S(N)(=O)=O)cc2)cc1 (stereo not given)
56 | inactive | COc1ccc(C2=NN(c3ccc(S(N)(=O)=O)cc3)C(c3ccc(OC)cc3)C2)cc1 (stereo not given)
57 | inactive | COc1ccc(C2CC(c3ccc(Br)cc3)=NN2c2ccc(S(N)(=O)=O)cc2)cc1 (stereo not given)
58 | inactive | COc1ccc(C2CC(c3cccc(C(F)(F)F)c3)=NN2c2ccc(S(N)(=O)=O)cc2)cc1 (stereo not given)
59 | inactive | COc1ccc(C2CC(c3ccc(C(F)(F)F)cc3)=NN2c2ccc(S(N)(=O)=O)cc2)cc1 (stereo not given)
60 | inactive | COc1ccc(C2CC(c3ccc(N(C)C)cc3)=NN2c2ccc(S(N)(=O)=O)cc2)cc1 (stereo not given)

The compounds below were run against Ras-related C3 botulinum toxin substrate 1 (Homo sapiens) (UniProt P63000) in the same assay as above. Details: GST-GTPase beads, BODIPY-GTP binding, flow cytometry, Rac1ACT.

Row | SMILES | EC50
61 | COc1ccc(C2CC(C)=NN2c2ccc(S(N)(=O)=O)cc2)cc1 (stereo not given) | inactive
62 | COc1ccc(C2CC(c3cccc(C)c3)=NN2c2ccc(S(N)(=O)=O)cc2)cc1 (stereo not given) | inactive
63 | COc1ccc(C2CC(C(C)(C)C)=NN2c2ccc(S(N)(=O)=O)cc2)cc1 (stereo not given) | inactive
64 | COc1ccc(C2CC(c3ccccc3)=NN2c2ccc(S(N)(=O)=O)cc2)cc1 (stereo not given) | inactive

Same assay, conditions: GST-GTPase beads, BODIPY-GTP binding, flow cytometry, Rac1ACT, at 100 µM (top of the series)

Row | SMILES | GTP binding remaining (% of DMSO)
65 | COc1ccc(-c2noc(CCC(=O)N3CCC(c4cc(C)ccc4C)CC3)n2)cc1 | inactive
66 | COc1ccc(C2CC(c3ccsc3)=NN2c2ccc(S(N)(=O)=O)cc2)cc1 (stereo not given) | inactive
67 | Cc1cccc(C2CC(c3ccccc3)=NN2c2ccc(S(N)(=O)=O)cc2)c1 (stereo not given) | inactive
68 | COc1ccc(-c2cc(CCC(=O)N3CCN(c4cc(C)ccc4C)CC3)on2)cc1 | inactive
69 | Cc1ccccc1C1CC(c2ccccc2)=NN1c1ccc(S(N)(=O)=O)cc1 (stereo not given) | inactive
70 | COc1ccc(C2CC(c3ccccc3C)=NN2c2ccc(S(N)(=O)=O)cc2)cc1 (stereo not given) | inactive
71 | COc1ccc(-c2cc(CCC(=O)N3CCN(c4cc(C)ccc4C)CC3)[nH]n2)cc1 | inactive
72 | COc1ccc(C2=NN(c3ccc(S(N)(=O)=O)cc3)C(c3ccc(OC)cc3)C2)cc1 (stereo not given) | inactive
73 | COc1ccc(C2CC(c3cccc(OC)c3)=NN2c2ccc(S(N)(=O)=O)cc2)cc1 (stereo not given) | inactive
74 | Cc1ccc(C2CC(c3ccccc3)=NN2c2ccc(S(N)(=O)=O)cc2)cc1 (stereo not given) | inactive
75 | COc1ccc(C2CC(c3ccc(Br)cc3)=NN2c2ccc(S(N)(=O)=O)cc2)cc1 (stereo not given) | inactive
76 | COc1ccc(C2CC(c3cccs3)=NN2c2ccc(S(N)(=O)=O)cc2)cc1 (stereo not given) | inactive
77 | COc1ccc(C2CC(c3cccc(C(F)(F)F)c3)=NN2c2ccc(S(N)(=O)=O)cc2)cc1 (stereo not given) | inactive
78 | NS(=O)(=O)c1ccc(N2N=C(c3ccccc3)CC2c2ccc(Cl)cc2)cc1 (stereo not given) | inactive
79 | COc1ccc(-c2noc(CCC(=O)N3CCN(c4cc(C)ccc4C)CC3)n2)cc1 | inactive
80 | COc1ccc(C2CC(c3ccccc3OC)=NN2c2ccc(S(N)(=O)=O)cc2)cc1 (stereo not given) | inactive
81 | NS(=O)(=O)c1ccc(N2N=C(c3ccccc3)CC2c2ccccc2Cl)cc1 (stereo not given) | inactive
82 | COc1ccc(-c2ccc(CCC(=O)N3CCN(c4cc(C)ccc4C)CC3)s2)cc1 | inactive
83 | COc1ccc(C2CC(c3ccc(C(F)(F)F)cc3)=NN2c2ccc(S(N)(=O)=O)cc2)cc1 (stereo not given) | inactive
84 | NS(=O)(=O)c1ccc(N2N=C(c3ccccc3)CC2c2ccccc2)cc1 (stereo not given) | inactive
85 | COc1ccc(-c2ccc(CCC(=O)N3CCN(c4cc(C)ccc4C)CC3)[nH]2)cc1 | inactive
86 | NS(=O)(=O)c1ccc(N2N=C(c3ccccc3)CC2c2cccc(Br)c2)cc1 (stereo not given) | inactive
87 | COc1cccc(C2CC(c3ccccc3)=NN2c2ccc(S(N)(=O)=O)cc2)c1 (stereo not given) | inactive
88 | COc1ccc(C2CC(c3ccc(N(C)C)cc3)=NN2c2ccc(S(N)(=O)=O)cc2)cc1 (stereo not given) | inactive
89 | COc1ccc(-c2ccc(CCC(=O)N3CCN(c4cc(C)ccc4C)CC3)o2)cc1 | inactive
90 | COc1ccc(C2CC(c3ccc(C)cc3)=NN2c2ccc(S(N)(=O)=O)cc2)cc1 (stereo not given) | inactive
